Legend:
[1] = biological target: T1, Glucocorticoid receptor (Homo sapiens, UniProt P04150); assay: Agonist activity at glucocorticoid receptor (unknown origin) incubated for 24 hrs by cell based microplate analysis
T1 sequence (P04150 whole entry): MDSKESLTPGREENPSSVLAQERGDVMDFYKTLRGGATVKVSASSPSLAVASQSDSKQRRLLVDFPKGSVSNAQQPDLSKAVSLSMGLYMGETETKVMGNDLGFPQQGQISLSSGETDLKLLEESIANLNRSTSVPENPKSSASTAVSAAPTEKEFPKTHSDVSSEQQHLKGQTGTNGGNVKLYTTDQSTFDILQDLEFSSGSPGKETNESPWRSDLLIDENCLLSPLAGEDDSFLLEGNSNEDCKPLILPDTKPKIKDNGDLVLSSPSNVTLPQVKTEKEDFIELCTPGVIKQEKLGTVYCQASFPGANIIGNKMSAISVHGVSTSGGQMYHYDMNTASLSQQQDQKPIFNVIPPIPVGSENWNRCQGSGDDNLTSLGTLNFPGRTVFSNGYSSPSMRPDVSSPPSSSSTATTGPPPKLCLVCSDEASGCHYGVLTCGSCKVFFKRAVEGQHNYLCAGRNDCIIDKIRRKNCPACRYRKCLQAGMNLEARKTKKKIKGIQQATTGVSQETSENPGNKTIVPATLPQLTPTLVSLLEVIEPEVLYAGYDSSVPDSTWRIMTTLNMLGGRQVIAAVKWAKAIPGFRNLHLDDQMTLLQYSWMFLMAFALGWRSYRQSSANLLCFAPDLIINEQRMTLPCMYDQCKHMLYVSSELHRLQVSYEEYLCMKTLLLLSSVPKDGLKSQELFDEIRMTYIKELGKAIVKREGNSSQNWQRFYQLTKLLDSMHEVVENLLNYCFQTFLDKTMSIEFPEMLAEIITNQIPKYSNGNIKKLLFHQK

[2] = Retention time of the compound by HPLC analysis; format: physicochemical

EC50 [1] [nM] | Retention_time [2] [min] | SMILES
4 | 2.353 | CCc1ccccc1C(=O)N(CC)C[C@@](O)(CNC(=O)c1cnn(-c2ccc(F)cc2)c1N)C(F)(F)F
78 | 2.163 | CCN(C[C@@](O)(CNC(=O)c1cnn(-c2ccc(F)cc2)c1N)C(F)(F)F)C(=O)c1ccccc1
2 | 2.337 | CCN(C[C@@](O)(CNC(=O)c1cnn(-c2ccc(F)cc2)c1N)C(F)(F)F)C(=O)c1c(Cl)cccc1Cl
26 | 2.249 | CCN(C[C@@](O)(CNC(=O)c1cnn(-c2ccc(F)cc2)c1N)C(F)(F)F)C(=O)c1ccccc1F
2 | 2.979 | CCN(C[C@@](O)(CNC(=O)c1cnn(-c2ccc(F)cc2)c1N)C(F)(F)F)C(=O)c1c(F)cccc1Cl
 | 2.279 | CCN(C[C@@](O)(CNC(=O)c1cnn(-c2ccc(F)cc2)c1N)C(F)(F)F)C(=O)c1c(C)cccc1F
5 | 2.228 | CCN(C[C@@](O)(CNC(=O)c1cnn(-c2ccc(F)cc2)c1N)C(F)(F)F)C(=O)c1c(F)cccc1F
 | 2.179 | CCN(C[C@@](O)(CNC(=O)c1cnn(-c2ccc(F)cc2)c1N)C(F)(F)F)C(=O)c1ccccc1C
 | 2.238 | CCN(C[C@@](O)(CNC(=O)c1cnn(-c2ccc(F)cc2)c1N)C(F)(F)F)C(=O)c1ccccc1Cl
 | 3.06 | CCN(C[C@](O)(CNC(=O)c1cnn(-c2ccc(F)cc2)c1N)C(F)(F)F)C(=O)c1c(Cl)cccc1Cl
 | 2.349 | CCN(C[C@@](O)(CNC(=O)c1cnn(-c2ccc(F)cc2)c1N)C(F)(F)F)C(=O)c1c(C)cccc1C

The next lines start with the compound.

SMILES | EC50 [1] [nM] | Retention_time [2] [min]
CCN(C[C@@](O)(CNC(=O)c1cnn(-c2ccc(F)cc2)c1N)C(F)(F)F)C(=O)c1c(C)cccc1Cl (stereo in doubt; 10b) | 4 | 2.36
CCc1cccc(Cl)c1C(=O)N(CC)C[C@@](O)(CNC(=O)c1cnn(-c2ccc(F)cc2)c1N)C(F)(F)F (stereo in doubt; 14a) | 9 | 2.39
CCc1cccc(C)c1C(=O)N(CC)C[C@@](O)(CNC(=O)c1cnn(-c2ccc(F)cc2)c1N)C(F)(F)F (stereo in doubt; 13a) |  | 2.394
CCN(C[C@@](O)(CNC(=O)c1cnn(-c2ccc(F)cc2)c1N)C(F)(F)F)C(=O)c1c(C)cccc1Cl (stereo in doubt; 10a) | 2 | 2.314
CCc1cccc(Cl)c1C(=O)N(CC)C[C@@](O)(CNC(=O)c1cnn(-c2ccc(F)cc2)c1N)C(F)(F)F (stereo in doubt; 14b) | 0.5 | 2.396
CCc1cccc(CC)c1C(=O)N(CC)C[C@@](O)(CNC(=O)c1cnn(-c2ccc(F)cc2)c1N)C(F)(F)F | 122 | 2.544
CCc1cccc(C)c1C(=O)N(CC)C[C@@](O)(CNC(=O)c1cnn(-c2ccc(F)cc2)c1N)C(F)(F)F (stereo in doubt; 13b) |  | 2.417

Source: ChEMBL document CHEMBL5550198, “Impact of atropisomerism on a non-steroidal glucocorticoid receptor agonist” (RSC Med Chem, 2024)
